The results in this text go back to PMC4933591 (Bioconjugate chemistry, 2015).

Non-standard residues stand in square brackets, D forms with d. Residues, ends and D or L forms follow the SMILES beside them. Aha = [N-]=[N+]=NCC[C@H](N)C(=O)O

Data set [1] in a line: Aggregation observed during experiments. In kind it is physicochemical. To be noted: lower concentrations during experiments.
Another data set concerns the target T1, GLP-1R (Mus musculus, UniProt O35659).
T1 sequence (O35659 22-463): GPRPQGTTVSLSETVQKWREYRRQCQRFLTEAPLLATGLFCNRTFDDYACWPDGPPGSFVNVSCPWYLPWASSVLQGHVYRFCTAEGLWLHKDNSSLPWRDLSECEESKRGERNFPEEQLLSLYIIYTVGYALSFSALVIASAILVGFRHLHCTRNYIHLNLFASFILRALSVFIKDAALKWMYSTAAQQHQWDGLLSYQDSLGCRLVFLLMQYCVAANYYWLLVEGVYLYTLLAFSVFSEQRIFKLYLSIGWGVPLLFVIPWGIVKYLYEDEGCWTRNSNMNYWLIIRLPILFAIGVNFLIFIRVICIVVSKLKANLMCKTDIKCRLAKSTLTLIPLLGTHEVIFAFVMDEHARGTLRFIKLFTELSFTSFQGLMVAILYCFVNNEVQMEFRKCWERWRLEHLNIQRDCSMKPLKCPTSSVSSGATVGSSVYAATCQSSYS
Put plainly: In vitro receptor binding assay using NIT-1 cells.

A word on the Kd: it is a measure of binding affinity in units of concentration. High values mean a looser complex, low ones a tighter complex.

As to `CC[C@H](C)[C@H](NC(=O)[C@H](Cc1ccccc1)NC(=O)[C@H](CCN=[N+]=[N-])NC(=O)[C@H](CCCCN)NC(=O)[C@H](C)NC(=O)[C@H](C)NC(=O)[C@H](CCC(N)=O)NC(=O)CNC(=O)[C@H](CCC(=O)O)NC(=O)[C@H](CCN=[N+]=[N-])NC(=O)[C@H](Cc1ccc(O)cc1)NC(=O)[C@H](CO)NC(=O)[C@H](CO)NC(=O)[C@@H](NC(=O)[C@H](CC(=O)O)NC(=O)[C@H](CO)NC(=O)[C@@H](NC(=O)[C@H](Cc1ccccc1)NC(=O)[C@@H](NC(=O)CNC(=O)[C@H](CCC(=O)O)NC(=O)[C@H](C)NC(=O)[C@@H](N)Cc1c[nH]cn1)[C@@H](C)O)[C@@H](C)O)C(C)C)C(=O)N[C@@H](C)C(=O)N[C@@H](Cc1c[nH]c2ccccc12)C(=O)N[C@@H](CC(C)C)C(=O)N[C@H](C(=O)N[C@@H](CCCCN)C(=O)NCC(=O)N[C@@H](CCCNC(=N)N)C(N)=O)C(C)C` [double mutant GLP-1] (H-HAEGTFTSDVSSY[Aha]EGQAAK[Aha]FIAWLVKGR-NH2), the aggregation result in data set [1] was “no aggregation was detected at lower concentrations”. On GLP-1R, this compound yielded a dissociation constant Kd of 5.6 nM. In addition, the “half-life slower than wild-type GLP-1” value in the data set with trypsin is on record as 1 to 2 orders of magnitude.
